Where a SMILES comes first, the peptide text is derived from it. Bridges are numbered along the chain shown (N, C = ends). Roman numbers before positions name the chains, in order.
Tests used:
C. albicans [1] = test: microbe, parasite or virus in culture; assay type: cell-based
Procedure: The yeast strains were cultivated and suspended in Sabouraud's Dextrose (SD) broth diluted at one sixth at a starting OD600=˜0.08 in a flat-bottomed microtitre plate. A serial dilution of peptide in the same broth was mixed with the inoculum to give a final peptide concentration of 0.4-22 μM. The antifungal activity was assessed by monitoring the OD600 in cycles of 30 minutes and an orbital shaking at 100 rpm using an Infinite M200 microplate reader (Tecan Group Ltd., Switzerland) for 24/48 h at 37° C. Cultures without peptides were used as positive controls and broth alone or with 22 μM peptide served as negative controls. The minimum concentration required for complete inhibition was assessed by both visible observations as well as by measuring the OD600 and taken as the MIC. Each experiment was repeated in triplicates.

C. albicans ATCC10231 = test: MIC in the presence of monovalent and divalent metal ions; assay type: cell-based
Procedure: For studying the effects of metal ions, SD broth was adjusted with appropriate concentrations of salts to yield a final concentration of 100 and 135 mM for NaCl and KCl and 0.5-2 mM for CaCl2 and MgCl2. MIC determinations were carried out as described above. C. albicans ATCC10231 cells and salts in broth were taken as a positive control. Salts alone (NaCl, KCl, and CaCl2 and MgCl2) in broth or with 22 μM peptide served as a negative control.

C. albicans ATCC 10231 = test: Antifungal activity after incubation with trypsin; assay type: cell-based; settings: trypsin:peptide 1:100, 37° C., up to 6 h
Procedure: For all the experiments, unless otherwise stated, ATCC 10231 strain was used. B4010 (1 mg/ml) was incubated with trypsin (enzyme:peptide ratio 1:100) at 37° C. 20 μL aliquot of this mixture was withdrawn at various time intervals (0.5, 1, 2, 4 and 6 h) and mixed with 1 μL of trypsin inhibitor. The antifungal activity of the peptide was determined by adding this mixture to 180 μl of inoculum and monitoring the growth at OD600 for 24 h. Similar experiments performed in the presence of trypsin/trypsin inhibitor (without B4010) were used as a positive control. For assessing the antifungal activity in tear fluid (TF), the peptide was dissolved in freshly collected rabbit TF and incubated at 37° C. for 6 h. After incubation, an equal volume of an overnight culture of C. albicans (˜10^6 CFU/ml) was mixed with peptides in tear fluid and incubated at 37° C. for 24 h. The final concentrations of the peptide were at 4.4, 8.8 and 22 μM. A 100 μL aliquot of serial dilutions (10^2 or 10^3 times) of this mixture were inoculated on a SD agar plate and then incubated for 48 h at 37° C. Culture alone and culture with 50% tear fluid served as the positive control. […]
The peptide B4010 was incubated with trypsin (trypsin:peptide ratio=1:100) at 37° C. An aliquot of this mixture was withdrawn at various time intervals, added to the C. albicans inoculum and the growth was monitored (FIG. 3C).

[2] = Acute in vivo toxicity in mice; set-up: species or system C57BL6 mice
Procedure: Acute toxicity of B4010 was assessed with C57BL6 (6-8 weeks old) wild type mice. Two healthy wild type mice were chosen for each route of administration. B4010 was delivered through intra-peritoneal (200 mg/kg) or (100 mg/kg) intra-venous routes. Two animals were used for each administration and monitored through 24/48 h to determine mortality, or signs of toxicity.

C. albicans [3] = test: Measurement of extracellular cations (ICP-OES); assay type: cell-based
Procedure: Overnight cultured late logarithmic phase C. albicans was harvested by centrifugation, washed 5 times with 10 mM HEPES (pH 7.0), resuspended in the same buffer and adjusted to an OD600=0.4. To 5 ml of this suspension, B4010 (final concentration 5.5 μM) was added and incubated at 37° C. for 2 h. The mixture was centrifuged at 3,000 g and the presence of K^+, Ca^2+ and Mg^2+ in the supernatant was estimated by Perkin Elmer Dual-view Optima 5300 DV inductively coupled plasma-optical emission spectrometry (ICP-OCS Massachusetts, USA) available at CMMAC facilities (Department of Chemistry, National University of Singapore).

[4] = Calcein release from fungal model membrane SUVs; settings: peptide:lipid ratio 1:30 and 1:15
Procedure: For the preparation of PC/PE/PI or PS/Erg SUV, the lipids were dissolved in chloroform/methanol (2:1, v/v) in a glass tube. Ergosterol was dissolved in same solvent and added to lipid mixture to make final ergosterol content of 15 wt %. The Lipid-ergosterol mixture was dried using nitrogen gas to form lipid layer. The film was hydrated in a buffer containing 20 mM PBS (pH 7), vortexed and sonicated. Each cycle of sonication (5 sec, 40° C.) is followed by freezing in liquid nitrogen and thawing on a water bath kept at 37° C. The procedure was repeated 5-6 times until an optically clear dispersion appeared. The SUV was divided into two parts. To the first part 50 mM calcein was added and incubated for 1 h. The excess calcein was removed by injecting 100 μL of the calcein-loaded SUV's into a Ultrahydrogel™ 250 (7.8 mm×300 mm) column equilibrated with 20 mM PBS (pH 7.0) and eluted isochratically at a flow rate of 1 ml/min for 1.5 column volumes. The calcein-loaded liposomes were mixed with calcein-free liposome (1:1) to adjust final liposome concentration. Peptide concentration was added to obtain 1:30 or 1:15 peptide:liposome ratio. Changes in the fluorescence signal after addition of peptide or Triton X-100 was measured on a PTI spectrofluorometer, using an excitation wavelength of 480 nm and emission wavelength of 512 nm. The Percentage calcein released at each time point was calculated using the equation: […]
Similar protocol was followed for the preparation of PC/Cholesterol SUVs.

C. albicans [5] = test: Cell viability assay under diS-C3-5 assay conditions; assay type: cell-based; settings: concentration exceeding 4×MIC
Procedure: To verify if the dissipation of membrane potential is linked to candidacidal activity, a cell viability assay was performed under identical conditions.

CC(C)[C@H](NC(=O)[C@H](CCCCN)NC(=O)[C@H](CCCNC(=N)N)NC(=O)CNC(=O)[C@@H](N)CCCNC(=N)N)C(=O)N[C@H](C(=O)N[C@@H](CCCNC(=N)N)C(=O)N[C@@H](CCCNC(=N)N)C(=O)NCCCC[C@H](NC(=O)[C@H](CCCNC(=N)N)NC(=O)[C@H](CCCNC(=N)N)NC(=O)[C@@H](NC(=O)[C@@H](NC(=O)[C@H](CCCCN)NC(=O)[C@H](CCCNC(=N)N)NC(=O)CNC(=O)[C@@H](N)CCCNC(=N)N)C(C)C)C(C)C)C(=O)NCCCC[C@H](NC(=O)[C@H](CCCCNC(=O)[C@H](CCCNC(=N)N)NC(=O)[C@H](CCCNC(=N)N)NC(=O)[C@@H](NC(=O)[C@@H](NC(=O)[C@H](CCCCN)NC(=O)[C@H](CCCNC(=N)N)NC(=O)CNC(=O)[C@@H](N)CCCNC(=N)N)C(C)C)C(C)C)NC(=O)[C@H](CCCNC(=N)N)NC(=O)[C@H](CCCNC(=N)N)NC(=O)[C@@H](NC(=O)[C@@H](NC(=O)[C@H](CCCCN)NC(=O)[C@H](CCCNC(=N)N)NC(=O)CNC(=O)[C@@H](N)CCCNC(=N)N)C(C)C)C(C)C)C(=O)N[C@@H](CCCCN)C(=O)O)C(C)C [Peptide B4010] (I: H-RGRKVVRRKKK-OH / II: H-RGRKVVRRK / III: H-RGRKVVRR / IV: H-RGRKVVRR; amide I:9-IV:C, I:10-II:C, II:9-III:C; N-terminus and C-terminus assumed)
MIC for two C. albicans clinical isolates (C. albicans [1]): 0.34 µM | MIC values, C. albicans (C. albicans [1]): 0.37 to 1.4 µM | decrease in MIC compared to the co-valent dimer (C. albicans [1]): 4-10 fold | activity superior to natamycin (C. albicans [1]; ATCC reference and clinical isolates): 2-4 times | increase in MIC (C. albicans ATCC10231; 25 mM KCl): 8 fold | increase in MIC compared to medium without KCl (C. albicans ATCC10231; 100 mM KCl): > 16 fold | decrease in MIC (C. albicans ATCC10231; 135 mM NaCl): 2 fold | change in MIC (C. albicans ATCC10231; high concentration of Ca2+ and Mg2+ ions): two fold increase | increase in MIC (C. albicans ATCC10231; physiological concentrations of divalent cations): 2 fold | antifungal activity after trypsin incubation (C. albicans ATCC 10231): No loss of antifungal activity | mortality, morbidity or toxicity ([2]; IP 200 mg/kg): no sign of mortality, morbidity or toxicity | mortality, morbidity or toxicity ([2]; IV 100 mg/kg): no sign of mortality, morbidity or toxicity | increase in K+- and Ca2+-ions (C. albicans [3]): 2 fold | calcium concentration in supernatant (C. albicans [3]; 5.5 μM, 2 h): 5.8 ± 1.3 µM | levels of Na+ and Mg2+ ions (C. albicans [3]; 5.5 μM, 2 h): no significant changes | potassium concentration in supernatant (C. albicans [3]; 5.5 μM, 2 h): 104 ± 4.2 µM | calcein release [4]: about 68% | cell viability (C. albicans [5]): complete loss of viability
